Source: ChEMBL document CHEMBL3045384, “Evaluating commercially available rodenticide baits for invasive Gambian giant pouched rats (Cricetomys gambianus)” (2010)

What was measured:
Assay type in all cases: functional
Cricetomys gambianus [1] = assay: Rodenticidal activity against invasive Cricetomys gambianus (Gambian giant pouched rat) assessed as rodent body weight using 0.0005% compound pellets bait by 7 day multiple-choice feeding trail method (reference value: 1.44 kg)
Cricetomys gambianus [2] = assay: Rodenticidal activity against invasive Cricetomys gambianus (Gambian giant pouched rat) assessed as rodent mortality using 0.0005% compound pellets bait by 7 day multiple-choice feeding trail method
Cricetomys gambianus [3] = assay: Rodenticidal activity against invasive Cricetomys gambianus (Gambian giant pouched rat) assessed as proportion of bait consumed using 0.0005% compound pellets bait by 7 day multiple-choice feeding trail method
Cricetomys gambianus [4] = assay: Rodenticidal activity against invasive Cricetomys gambianus (Gambian giant pouched rat) assessed as mean bait consumed using 0.0005% compound pellets bait by 7 day multiple-choice feeding trail method
Cricetomys gambianus [5] = assay: Rodenticidal activity against invasive Cricetomys gambianus (Gambian giant pouched rat) assessed as mean duration to death using 0.0005% compound pellets bait by 7 day multiple-choice feeding trail method
Cricetomys gambianus [6] = assay: Rodenticidal activity against invasive Cricetomys gambianus (Gambian giant pouched rat) assessed as proportion of bait consumed using 0.005% compound pellets bait by 7 day multiple-choice feeding trail method
Cricetomys gambianus [7] = assay: Rodenticidal activity against invasive Cricetomys gambianus (Gambian giant pouched rat) assessed as rodent body weight using 0.005% compound pellets bait by 7 day multiple-choice feeding trail method (reference value: 1.44 kg)
Cricetomys gambianus [8] = assay: Rodenticidal activity against invasive Cricetomys gambianus (Gambian giant pouched rat) assessed as rodent mortality using 0.005% compound blocks bait by 7 day multiple-choice feeding trail method
Cricetomys gambianus [9] = assay: Rodenticidal activity against invasive Cricetomys gambianus (Gambian giant pouched rat) assessed as mean bait consumed using 0.005% compound pellets bait by 7 day multiple-choice feeding trail method
Cricetomys gambianus [10] = assay: Rodenticidal activity against invasive Cricetomys gambianus (Gambian giant pouched rat) assessed as mean bait consumed using 0.005% compound blocks bait by 7 day multiple-choice feeding trail method
Cricetomys gambianus [11] = assay: Rodenticidal activity against invasive Cricetomys gambianus (Gambian giant pouched rat) assessed as proportion of bait consumed using 0.005% compound blocks bait by 7 day multiple-choice feeding trail method
Cricetomys gambianus [12] = assay: Rodenticidal activity against invasive Cricetomys gambianus (Gambian giant pouched rat) assessed as rodent mortality using 0.005% compound pellets bait by 7 day multiple-choice feeding trail method
Cricetomys gambianus [13] = assay: Rodenticidal activity against invasive Cricetomys gambianus (Gambian giant pouched rat) assessed as mean duration to death using 0.005% compound blocks bait by 7 day multiple-choice feeding trail method
Cricetomys gambianus [14] = assay: Rodenticidal activity against invasive Cricetomys gambianus (Gambian giant pouched rat) assessed as rodent body weight using 0.005% compound blocks bait by 7 day multiple-choice feeding trail method (reference value: 1.44 kg)
Cricetomys gambianus [15] = assay: Rodenticidal activity against invasive Cricetomys gambianus (Gambian giant pouched rat) assessed as proportion of bait consumed using 0.01% compound blocks bait by 7 day multiple-choice feeding trail method
Cricetomys gambianus [16] = assay: Rodenticidal activity against invasive Cricetomys gambianus (Gambian giant pouched rat) assessed as mean bait consumed using 0.01% compound blocks bait by 7 day multiple-choice feeding trail method
Cricetomys gambianus [17] = assay: Rodenticidal activity against invasive Cricetomys gambianus (Gambian giant pouched rat) assessed as rodent body weight using 0.01% compound blocks bait by 7 day multiple-choice feeding trail method (reference value: 1.44 kg)
Cricetomys gambianus [18] = assay: Rodenticidal activity against invasive Cricetomys gambianus (Gambian giant pouched rat) assessed as mean duration to death using 0.01% compound blocks bait by 7 day multiple-choice feeding trail method
Cricetomys gambianus [19] = assay: Rodenticidal activity against invasive Cricetomys gambianus (Gambian giant pouched rat) assessed as rodent mortality using 0.01% compound blocks bait by 7 day multiple-choice feeding trail method
Cricetomys gambianus [20] = assay: Rodenticidal activity against invasive Cricetomys gambianus (Gambian giant pouched rat) assessed as mean bait consumed using 0.0025% compound pellets bait by 7 day multiple-choice feeding trail method
Cricetomys gambianus [21] = assay: Rodenticidal activity against invasive Cricetomys gambianus (Gambian giant pouched rat) assessed as rodent body weight using 0.0025% compound pellets bait by 7 day multiple-choice feeding trail method (reference value: 1.44 kg)
Cricetomys gambianus [22] = assay: Rodenticidal activity against invasive Cricetomys gambianus (Gambian giant pouched rat) assessed as mean duration to death using 0.0025% compound pellets bait by 7 day multiple-choice feeding trail method
Cricetomys gambianus [23] = assay: Rodenticidal activity against invasive Cricetomys gambianus (Gambian giant pouched rat) assessed as proportion of bait consumed using 0.0025% compound pellets bait by 7 day multiple-choice feeding trail method
Cricetomys gambianus [24] = assay: Rodenticidal activity against invasive Cricetomys gambianus (Gambian giant pouched rat) assessed as rodent mortality using 0.0025% compound pellets bait by 7 day multiple-choice feeding trail method

Question: Which results are given for `O=C1c2ccccc2C(=O)C1C(=O)C(c1ccccc1)c1ccc(Cl)cc1` (centres undefined) [CHLOROPHACINONE]?
Answer: Activity (Cricetomys gambianus [1]): 1.47 kg; Activity (Cricetomys gambianus [2]): 50%; Activity (Cricetomys gambianus [3]): 0.3%; Activity (Cricetomys gambianus [4]): 89.7 g; Time (Cricetomys gambianus [5]): 11.7 days

Question: For `O=C1c2ccccc2C(=O)C1C(=O)C(c1ccccc1)c1ccccc1` [DIPHENADIONE], which Activity (Cricetomys gambianus [6]) is on record?
Answer: Its Activity is 0.35%.

Question: What about the Activity (Cricetomys gambianus [7]) of the same compound?
Answer: The Activity was 1.47 kg.

Question: And the Activity (Cricetomys gambianus [8])?
Answer: The Activity was 17%.

Question: What about the Activity (Cricetomys gambianus [9]) of the same compound?
Answer: Its Activity is 106.2 g.

Question: What about the Activity (Cricetomys gambianus [10]) of the same compound?
Answer: The Activity was 92.6 g.

Question: What about the Activity (Cricetomys gambianus [11]) of the same compound?
Answer: Its Activity is 0.3%.

Question: And the Activity (Cricetomys gambianus [12])?
Answer: Its Activity is 0%.

Question: What about the Time (Cricetomys gambianus [13]) of the same compound?
Answer: The Time was 12 days.

Question: And the Activity (Cricetomys gambianus [14])?
Answer: Its Activity is 1.5 kg.

Question: How did the Activity (Cricetomys gambianus [15]) turn out when `CN(c1c(Br)cc(Br)cc1Br)c1c([N+](=O)[O-])cc([N+](=O)[O-])cc1C(F)(F)F` [BROMETHALIN] was run?
Answer: The Activity was 0.21%.

Question: And the Activity (Cricetomys gambianus [16])?
Answer: The Activity was 25.58 g.

Question: What about the Activity (Cricetomys gambianus [17]) of the same compound?
Answer: The Activity was 1.55 kg.

Question: And the Time (Cricetomys gambianus [18])?
Answer: The Time was 14 days.

Question: What about the Activity (Cricetomys gambianus [19]) of the same compound?
Answer: Its Activity is 20%.

Question: What does the source list for `O=c1oc2ccccc2c(O)c1C1CC(c2ccc(-c3ccc(Br)cc3)cc2)Cc2ccccc21` (centres undefined) [BRODIFACOUM]?
Answer: Activity (Cricetomys gambianus [20]): 89 g; Activity (Cricetomys gambianus [21]): 1.37 kg; Time (Cricetomys gambianus [22]): 12.2 days; Activity (Cricetomys gambianus [23]): 0.39%; Activity (Cricetomys gambianus [24]): 100%
